Among the data in the NIST ThermoML archive (doi:10.1016/j.jct.2017.07.012) are mass density and activity coefficient values, retold here.

What is called mass density is the mass of a sample divided by its volume.

For data set [1] the following is noted: 101.33 kPa, Liquid, Vibrating tube method.
A short description of data set [2]: activity coefficient (dimensionless); of the first substance listed, at infinite dilution; xn = mol fraction of the nth substance listed. The settings on record: 101.33 kPa, Liquid, Chromatography, x1 = 0.

Molecules are shown by their SMILES. Numbers after ± are expanded uncertainties.

Regarding `CCCCn1cc[n+](C)c1.[O-][Cl+3]([O-])([O-])[O-]` [1-butyl-3-methylimidazolium perchlorate], the mass density in data set [1] (303.15 K) is given as 1247.87 ± 2.4 kg/m3; in data set [1] (313.15 K) it was 1240.83 ± 2.4 kg/m3; in data set [1] (323.15 K), 1233.88 ± 2.4 kg/m3; in data set [1] (333.15 K) it was 1227.01 ± 2.4 kg/m3; in data set [1] (343.15 K), 1220.19 ± 2.4 kg/m3; in data set [1] (353.15 K), 1213.44 ± 2.4 kg/m3.
For `C1COCCO1` [1,4-dioxane] + CCCCn1cc[n+](C)c1.[O-][Cl+3]([O-])([O-])[O-], the activity coefficient is 1 ± 0.1 in data set [2] (323.15 K), 1.02 ± 0.1 in data set [2] (333.15 K), 1.1 ± 0.11 in data set [2] (343.15 K) and 1.14 ± 0.12 in data set [2] (353.15 K).
As for `Cc1ccccc1C` [1,2-dimethylbenzene] + CCCCn1cc[n+](C)c1.[O-][Cl+3]([O-])([O-])[O-], the activity coefficient was 4.09 ± 0.43 in data set [2] (323.15 K), 4.16 ± 0.44 in data set [2] (333.15 K), 4.27 ± 0.45 in data set [2] (343.15 K) and 4.37 ± 0.46 in data set [2] (353.15 K).
`CC(C)O` [propan-2-ol] + CCCCn1cc[n+](C)c1.[O-][Cl+3]([O-])([O-])[O-]: the activity coefficient is 2.27 ± 0.24 in data set [2] (303.15 K); 2.18 ± 0.23 in data set [2] (313.15 K); 2.06 ± 0.22 in data set [2] (323.15 K); 2.06 ± 0.22 in data set [2] (333.15 K); 1.93 ± 0.2 in data set [2] (343.15 K); 1.92 ± 0.2 in data set [2] (353.15 K).
Take `ClCCl` [dichloromethane] + CCCCn1cc[n+](C)c1.[O-][Cl+3]([O-])([O-])[O-]: the activity coefficient in data set [2] (303.15 K) is 0.84 ± 0.09; in data set [2] (313.15 K), 0.91 ± 0.09; in data set [2] (323.15 K), 0.96 ± 0.1; in data set [2] (333.15 K), 1.01 ± 0.1; in data set [2] (343.15 K), 1.1 ± 0.11; in data set [2] (353.15 K) it was 1.13 ± 0.12.
As for `C=Cc1ccccc1` [styrene] + CCCCn1cc[n+](C)c1.[O-][Cl+3]([O-])([O-])[O-], the activity coefficient in data set [2] (333.15 K) was determined as 2.29 ± 0.24; in data set [2] (343.15 K), 2.42 ± 0.25; in data set [2] (353.15 K), 2.5 ± 0.26.
